We go through 3 compounds from patent EP4293034A1, “A NOVEL ACYLATED DERIVATE OF PHLORETIN AND ITS USE AS ANTIOXIDANT” (Consejo Superior de Investigaciones Científicas (CSIC), priority 2022, dated 2023).

Data set [1] is described as follows: Antioxidant activity, ABTS assay. Type of data set: biochemical. The conditions noted are these: n = 3. The procedure: (§1) The capacity of the synthesized ester to reduce 2,2-diphenyl-1-picrylhydrazyl (DPPH) and the radical cation 2,2-azino-bis(3-ethylbenzothiazoline-6-sulfonic acid) diammonium salt (ABTS^·+) was assayed. (R)-Trolox was employed as antioxidant reference. Standard solutions with a concentration between 0 and 1000 µM for DPPH assay, and between 0 and 500 µM for ABTS assay, were prepared.

Data set [2] can be described thus: In vitro percutaneous absorption on Franz static diffusion cells. Type of data set: in vitro ADME. The following applies: pig skin model, 24 h exposure, Figure 5. The procedure: The study was carried out in vitro with pig biopsies placed on Franz static diffusion cells (3 mL, 1.86 cm^2 of exposed area, diameter: […], Lara-Spiral, Courtenon, France) in order to determine the distribution of active compound (API) at the different skin layers, after an exposure time of 24 hours. The pig skin, provided by the Department of Cardiology of the Hospital Clinic (Barcelona, Spain), is considered morphologically and functionally equivalent to human skin for percutaneous absorption studies. Ultra-pure water was employed as receptor fluid, and cells were placed in a thermostated water bath (32 °C) containing a magnetic stirring device to obtain the skin surface temperature at 32 ± 1 °C. The integrity of the skin samples was evaluated by measuring the transepidermal water loss (TEWL) with Tewameter TM300 (Courage & Khazaka, Cologne, Germany) considering correct TEWL values under 15 g m^-2 h^-1. […] The different samples to be analyzed (W, SC, E, D and FR) were extracted and/or diluted in methanol (Merck, Darmstadt, Germany). The phloretin, its corresponding monoglucoside and acylated monoglucoside concentrations were analyzed by HPLC, as previously described. […] The results are shown as mean values (expressed as µg/cm2) ± standard deviations. […]

Data set [3] can be described thus: Antioxidant activity, DPPH assay. In kind it is biochemical. The following applies: n = 3. As for the experimental part: as §1
The next data set can be described thus: Aqueous solubility. In kind it is physicochemical. The conditions noted are these: water, 25 °C, 72 h. As for the experimental part: The compound was incubated at 25 °C in water (saturated conditions) during 3 days under orbital stirring (1000 rpm). Then, the sample was centrifuged. A volume of 200 µL of the supernatant solution was analysed by triplicate, in a 96-well plate, using a phloretin calibration curve in methanol (0-200 µg/mL). The absorbance was measured by UV spectrophotometry (Tecan Infinite M200) at 297 nm.

For data set [4] the following is noted: (*) data from Gonzalez-Alfonso et al, 2021, cited from earlier work; for EC50: EC50 ± SD, read-out: DPPH assay EC50; for DPPH assay TEAC: TEAC ± SD. For orientation: The DPPH test is a chemical assay of radical scavenging.
For data set [5] the following is noted: (*) data from Gonzalez-Alfonso et al, 2021, cited from earlier work; for EC50: EC50 ± SD, read-out: ABTS assay EC50; for ABTS assay TEAC: TEAC ± SD.
The conditions of data set [6]: previously reported, Gonzalez-Alfonso et al, 2021; cited from earlier work.
For data set [7] the following is noted: water, 25 °C; (*) data from Gonzalez-Alfonso et al, 2021; cited from earlier work.
Setting [8] is: TEAC ± SD, calculated from EC50 of the acyl derivative and EC50 of (R)-Trolox.

Structures are written as SMILES. Values after ≈ are worked out from the molar mass of the structure shown. Read-outs that look alike come from different tables or passages of the source. Marks after values point to notes of the source that are not given here.

With `CCCCCCCCCCCC(=O)OC[C@H]1O[C@H](Oc2cc(O)c(C(=O)CCc3ccc(O)cc3)c(O)c2)[C@H](O)[C@@H](O)[C@@H]1O` [phloretin 4'-O-(6-O-lauroyl)-α-D-glucopyranoside], the EC50 (commonly the concentration giving half of the maximal effect) in data set [1] (EC50 ± SD) is 14.7 ± 0.7 µM; in data set [3] (EC50 ± SD), 439 ± 13 µM. Also, in data set [1] (setting [8]), the “ABTS assay TEAC” value is on record as 0.47 ± 0.04. Besides, the “percutaneous absorption, increase versus phloretin and its α-glucoside” value in data set [2] (listed as acyl-glucoside of phloretin) was “approx. 3 fold”; in data set [2] (listed as acylglucoside of phloretin) it was 3 fold. The “DPPH assay TEAC” value in data set [3] (setting [8]) is given as 11.4 ± 0.8. In the data set “Aqueous solubility”, the Solubility (commonly the dissolved amount per volume that the medium holds) came out at 6.0 ± 0.2 mg/L (≈ 9.7 µM).
As for `O=C(CCc1ccc(O)cc1)c1c(O)cc(O[C@H]2O[C@H](CO)[C@@H](O)[C@H](O)[C@H]2O)cc1O` [Phloretin 4'-O-α-D-(glucopyranoside), Phloretin 4'-O-α-D-Glucopyranoside], in data set [4], the EC50 is 285 ± 20 µM and the “DPPH assay TEAC” value is 8.1 ± 0.6. Further, in data set [5], the EC50 was 16.9 ± 0.5 µM and the “ABTS assay TEAC” value is listed as 0.64 ± 0.06.
For `O=C(CCc1ccc(O)cc1)c1c(O)cc(O)cc1O` [Phloretin, 2',4',6'-trihydroxy-3-(4-hydroxyphenyl)-propiophenone], in data set [4], the EC50 is 217 ± 14 µM and the “DPPH assay TEAC” value is on record as 6.2 ± 0.4. Also, the “skin absorption (in words)” value in data set [6] is given as “the same absorption pattern, without significant differences”. The Solubility in data set [7] is on record as 23.2 ± 0.3* mg/L. Besides, in data set [5], the concentration giving a half-maximal response (EC50) is 11.7 ± 0.6 µM and the “ABTS assay TEAC” value is recorded as 0.45 ± 0.04.
